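Abbreviation: GI50, concentration required for 50% inhibition of growth. TGI marks complete inhibition of growth.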
Key:
Test in all cases: DTP human tumour cell line panel, 384-well format
OVCAR-3 ovarian = system: OVCAR-3 ovarian
HOP-62 NSCLC = system: HOP-62 NSCLC
MDA-MB-231 breast = system: MDA-MB-231 breast
K-562 leukemia = system: K-562 leukemia
HL-60(TB) leukemia = system: HL-60(TB) leukemia
SK-OV-3 ovarian = system: SK-OV-3 ovarian
NCI-H226 lung = system: NCI-H226 lung
UACC-257 melanoma = system: UACC-257 melanoma
OVCAR-5 ovarian = system: OVCAR-5 ovarian
BT-549 breast = system: BT-549 breast
IGROV1 ovarian = system: IGROV1 ovarian
OVCAR-4 ovarian = system: OVCAR-4 ovarian
HCT-15 colon = system: HCT-15 colon
EKVX NSCLC = system: EKVX NSCLC
786-0 renal = system: 786-0 renal
NCI-H460 NSCLC = system: NCI-H460 NSCLC
PC-3 prostate = system: PC-3 prostate
MDA-MB-435 melanoma = system: MDA-MB-435 melanoma
HCC-2998 colon = system: HCC-2998 colon
NCI/ADR-RES ovarian = system: NCI/ADR-RES ovarian
HT29 colon = system: HT29 colon
SNB-75 CNS = system: SNB-75 CNS
CAKI-1 renal = system: CAKI-1 renal
T-47D breast = system: T-47D breast
NCI-H322M lung = system: NCI-H322M lung
SK-MEL-5 melanoma = system: SK-MEL-5 melanoma
A498 renal = system: A498 renal
MALME-3M melanoma = system: MALME-3M melanoma
OVCAR-8 ovarian = system: OVCAR-8 ovarian
UO-31 renal = system: UO-31 renal
UACC-62 melanoma = system: UACC-62 melanoma
TK-10 renal = system: TK-10 renal
KM12 colon = system: KM12 colon
SW-620 colon = system: SW-620 colon
LOX IMVI melanoma = system: LOX IMVI melanoma
SN12C renal = system: SN12C renal
ACHN renal = system: ACHN renal
U251 glioblastoma = system: U251 glioblastoma
MDA-MB-468 breast = system: MDA-MB-468 breast
RXF 393 renal = system: RXF 393 renal
NCI-H522 lung = system: NCI-H522 lung
COLO 205 colon = system: COLO 205 colon
SR leukemia = system: SR leukemia
CCRF-CEM leukemia = system: CCRF-CEM leukemia
SK-MEL-28 melanoma = system: SK-MEL-28 melanoma
HOP-92 NSCLC = system: HOP-92 NSCLC
SF-268 CNS = system: SF-268 CNS
SF-295 CNS = system: SF-295 CNS
NCI-H23 lung = system: NCI-H23 lung
SNB-19 CNS = system: SNB-19 CNS
MOLT-4 leukemia = system: MOLT-4 leukemia
MCF7 breast = system: MCF7 breast
M14 melanoma = system: M14 melanoma
A549 NSCLC = system: A549 NSCLC
RPMI-8226 leukemia = system: RPMI-8226 leukemia
HS 578T breast = system: HS 578T breast
DU-145 prostate = system: DU-145 prostate
SF-539 CNS = system: SF-539 CNS

`Cn1cncc1[C@@](N)(c1ccc(Cl)cc1)c1ccc2c(c1)c(-c1cccc(Cl)c1)cc(=O)n2C` showed a GI50 (OVCAR-3 ovarian) of 1250 nM, a TGI (OVCAR-3 ovarian) of 3770 nM and a GI50 (HOP-62 NSCLC) of 1900 nM. For the same molecule, the TGI (HOP-62 NSCLC) was 8680 nM, the GI50 (MDA-MB-231 breast) was 1520 nM and the TGI (MDA-MB-231 breast) was 8300 nM. For the same molecule, the GI50 (K-562 leukemia) was 200 nM, the TGI (K-562 leukemia) was 2050 nM and the GI50 (HL-60(TB) leukemia) was less than 10 nM. For the same molecule, the TGI (HL-60(TB) leukemia) was 1280 nM, the GI50 (SK-OV-3 ovarian) was 1260 nM and the TGI (SK-OV-3 ovarian) was 8170 nM. The GI50 (NCI-H226 lung) was 1080 nM, the TGI (NCI-H226 lung) was 6960 nM and the GI50 (UACC-257 melanoma) was 1380 nM. It also gave a TGI (UACC-257 melanoma) of 4880 nM, a GI50 (OVCAR-5 ovarian) of 2490 nM and a TGI (OVCAR-5 ovarian) of 12200 nM. It also gave a GI50 (BT-549 breast) of 1340 nM, a TGI (BT-549 breast) of 4320 nM and a GI50 (IGROV1 ovarian) of 1560 nM. For the same molecule, the TGI (IGROV1 ovarian) was 4990 nM, the GI50 (OVCAR-4 ovarian) was 1130 nM and the TGI (OVCAR-4 ovarian) was 5260 nM. For the same molecule, the GI50 (HCT-15 colon) was 884 nM, the TGI (HCT-15 colon) was 5180 nM and the GI50 (EKVX NSCLC) was 1520 nM. For the same molecule, the TGI (EKVX NSCLC) was 6020 nM, the GI50 ([…]-0 renal) was 1160 nM and the TGI (786-0 renal) was 8760 nM. For the same molecule, the GI50 (NCI-H460 NSCLC) was 391 nM, the TGI (NCI-H460 NSCLC) was 6170 nM and the GI50 (PC-3 prostate) was 1420 nM. The TGI (PC-3 prostate) was 6970 nM, the GI50 (MDA-MB-435 melanoma) was 189 nM and the TGI (MDA-MB-435 melanoma) was 1510 nM. It also gave a GI50 (HCC-2998 colon) of 1270 nM, a TGI (HCC-2998 colon) of 3230 nM and a GI50 (NCI/ADR-RES ovarian) of 1620 nM. For the same molecule, the TGI (NCI/ADR-RES ovarian) was 5510 nM, the GI50 (HT29 colon) was 1380 nM and the TGI (HT29 colon) was 3620 nM. The GI50 (SNB-75 CNS) was 1350 nM, the TGI (SNB-75 CNS) was 4960 nM and the GI50 (CAKI-1 renal) was 2110 nM. For the same molecule, the TGI (CAKI-1 renal) was 11900 nM, the GI50 (T-47D breast) was 64.5 nM and the TGI (T-47D breast) was 3670 nM. The GI50 (NCI-H322M lung) was 2060 nM, the TGI (NCI-H322M lung) was 15800 nM and the GI50 (SK-MEL-5 melanoma) was 313 nM. It also gave a TGI (SK-MEL-5 melanoma) of 2130 nM, a GI50 (A498 renal) of 74.6 nM and a TGI (A498 renal) of 4040 nM. It also gave a GI50 (MALME-3M melanoma) of 141 nM, a TGI (MALME-3M melanoma) of 2050 nM and a GI50 (OVCAR-8 ovarian) of 2410 nM. For the same molecule, the TGI (OVCAR-8 ovarian) was 12300 nM, the GI50 (UO-31 renal) was 708 nM and the TGI (UO-31 renal) was 9770 nM. For the same molecule, the GI50 (UACC-62 melanoma) was 173 nM, the TGI (UACC-62 melanoma) was 2750 nM and the GI50 (TK-10 renal) was 1750 nM. For the same molecule, the TGI (TK-10 renal) was 6980 nM, the GI50 (KM12 colon) was 186 nM and the TGI (KM12 colon) was 2310 nM. For the same molecule, the GI50 (SW-620 colon) was 1360 nM, the TGI (SW-620 colon) was 4410 nM and the GI50 (LOX IMVI melanoma) was 1130 nM. It also gave a TGI (LOX IMVI melanoma) of 3310 nM, a GI50 (SN12C renal) of 179 nM and a TGI (SN12C renal) of 5390 nM. For the same molecule, the GI50 (ACHN renal) was 1280 nM, the TGI (ACHN renal) was 5310 nM and the GI50 (U251 glioblastoma) was 1110 nM. The TGI (U251 glioblastoma) was 12600 nM, the GI50 (MDA-MB-468 breast) was 23.5 nM and the TGI (MDA-MB-468 breast) was 1830 nM. The GI50 (RXF 393 renal) was 472 nM, the TGI (RXF 393 renal) was 10100 nM and the GI50 (NCI-H522 lung) was 1100 nM. For the same molecule, the TGI (NCI-H522 lung) was 3850 nM, the GI50 (COLO 205 colon) was 1230 nM and the TGI (COLO 205 colon) was 3770 nM. For the same molecule, the GI50 (SR leukemia) was 12.9 nM, the TGI (SR leukemia) was 194 nM and the GI50 (CCRF-CEM leukemia) was less than 10 nM. The TGI (CCRF-CEM leukemia) was 1250 nM, the GI50 (SK-MEL-28 melanoma) was 1370 nM and the TGI (SK-MEL-28 melanoma) was 6440 nM. For the same molecule, the GI50 (HOP-92 NSCLC) was 271 nM, the TGI (HOP-92 NSCLC) was 3620 nM and the GI50 (SF-268 CNS) was 1780 nM. For the same molecule, the TGI (SF-268 CNS) was 11400 nM, the GI50 (SF-295 CNS) was 463 nM and the TGI (SF-295 CNS) was 2780 nM. For the same molecule, the GI50 (NCI-H23 lung) was 1510 nM, the TGI (NCI-H23 lung) was 4810 nM and the GI50 (SNB-19 CNS) was 2330 nM. For the same molecule, the TGI (SNB-19 CNS) was 13200 nM, the GI50 (MOLT-4 leukemia) was less than 10 nM and the TGI (MOLT-4 leukemia) was 57.9 nM. For the same molecule, the GI50 (MCF7 breast) was 1080 nM, the TGI (MCF7 breast) was 3660 nM and the GI50 (M14 melanoma) was 22 nM. For the same molecule, the TGI (M14 melanoma) was 2210 nM, the GI50 (A549 NSCLC) was 1640 nM and the TGI (A549 NSCLC) was 11100 nM. The GI50 (RPMI-8226 leukemia) was 11.1 nM, the TGI (RPMI-8226 leukemia) was 218 nM and the GI50 (HS 578T breast) was 1460 nM. For the same molecule, the TGI (HS 578T breast) was 4620 nM, the GI50 (DU-145 prostate) was 2400 nM and the TGI (DU-145 prostate) was 12100 nM. For the same molecule, the GI50 (SF-539 CNS) was 1210 nM and the TGI (SF-539 CNS) was 4330 nM.
